System: 168753-222-R-J1-PDC complex spheroid viability
Test: Anticancer human tumor 168753-222-R-J1-PDC patient-derived bladder carcinoma cell line growth inhibition [CLK]
Conditions: for IC50: curve of first compound; for viability, T/C: stronger effect = lower value
Method in brief: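 Multi-cell-type spheroids combined patient-derived tumor cells with HUVEC endothelial cells and human mesenchymal stem cells. Paired agents were dosed in half-log steps down from about clinical Cmax, or from 10 microM where Cmax was unknown.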

[1] = second compound 0.0316 µM, first compound 0.0316 µM
[2] = second compound 0.0316 µM, first compound 0.1 µM
[3] = second compound 0.1 µM, first compound 0.0316 µM
[4] = second compound 0.1 µM, first compound 0.1 µM
[5] = second compound 0.316 µM, first compound 0.0316 µM
[6] = second compound 0.316 µM, first compound 0.1 µM
[7] = second compound 1 µM, first compound 0.0316 µM
[8] = second compound 1 µM, first compound 0.1 µM
[9] = second compound 3.16 µM, first compound 0.0316 µM
[10] = second compound 3.16 µM, first compound 0.1 µM
[11] = second compound 10 µM, first compound 0.0316 µM
[12] = second compound 10 µM, first compound 0.1 µM
[13] = second compound 0.0316 µM, first compound 0.316 µM
[14] = second compound 0.0316 µM, first compound 1 µM
[15] = second compound 0.0316 µM, first compound 3.16 µM
[16] = second compound 0.0316 µM, first compound 10 µM
[17] = second compound 0.1 µM, first compound 0.316 µM
[18] = second compound 0.1 µM, first compound 1 µM
[19] = second compound 0.1 µM, first compound 3.16 µM
[20] = second compound 0.1 µM, first compound 10 µM
[21] = second compound 0.316 µM, first compound 0.316 µM
[22] = second compound 0.316 µM, first compound 1 µM
[23] = second compound 0.316 µM, first compound 3.16 µM
[24] = second compound 0.316 µM, first compound 10 µM
[25] = second compound 1 µM, first compound 0.316 µM
[26] = second compound 1 µM, first compound 1 µM
[27] = second compound 1 µM, first compound 3.16 µM
[28] = second compound 1 µM, first compound 10 µM
[29] = second compound 3.16 µM, first compound 0.316 µM
[30] = second compound 3.16 µM, first compound 1 µM
[31] = second compound 3.16 µM, first compound 3.16 µM
[32] = second compound 3.16 µM, first compound 10 µM
[33] = second compound 10 µM, first compound 0.316 µM
[34] = second compound 10 µM, first compound 1 µM
[35] = second compound 10 µM, first compound 3.16 µM
[36] = second compound 10 µM, first compound 10 µM
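Further: viability measured after seven days of drug exposure.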
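Wherever viability, T/C is given: luminescence signal used as surrogate for viable cell amount; 100% = DMSO vehicle control wells.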

Cn1ncnc1[C@H]1c2n[nH]c(=O)c3cc(F)cc(c23)N[C@@H]1c1ccc(F)cc1 + CNC(=O)c1ccc(Nc2nc(OC3CCCC3)c3c(-c4ccc5nc(C)oc5c4)c[nH]c3n2)c(OC)c1
IC50 (second compound 0.0316 µM): > 100 nM
IC50 (second compound 0.1 µM): > 100 nM
IC50 (second compound 0.316 µM): > 100 nM
IC50 (second compound 1 µM): < 0.316 nM
IC50 (second compound 3.16 µM): < 0.316 nM
IC50 (second compound 10 µM): < 0.316 nM
viability, T/C (second compound 0.0316 µM, first compound 0.000316 µM): 95%
viability, T/C (second compound 0.0316 µM, first compound 0.001 µM): 116%
viability, T/C (second compound 0.0316 µM, first compound 0.00316 µM): 110%
viability, T/C (second compound 0.0316 µM, first compound 0.01 µM): 113%
viability, T/C [1]: 104%
viability, T/C [2]: 108%
viability, T/C (second compound 0.1 µM, first compound 0.000316 µM): 96.8%
viability, T/C (second compound 0.1 µM, first compound 0.001 µM): 93.6%
viability, T/C (second compound 0.1 µM, first compound 0.00316 µM): 91.7%
viability, T/C (second compound 0.1 µM, first compound 0.01 µM): 103%
viability, T/C [3]: 103%
viability, T/C [4]: 92.6%
viability, T/C (second compound 0.316 µM, first compound 0.000316 µM): 66.3%
viability, T/C (second compound 0.316 µM, first compound 0.001 µM): 72%
viability, T/C (second compound 0.316 µM, first compound 0.00316 µM): 77.2%
viability, T/C (second compound 0.316 µM, first compound 0.01 µM): 85.2%
viability, T/C [5]: 82.1%
viability, T/C [6]: 77.2%
viability, T/C (second compound 1 µM, first compound 0.000316 µM): 33.9%
viability, T/C (second compound 1 µM, first compound 0.001 µM): 32%
viability, T/C (second compound 1 µM, first compound 0.00316 µM): 30.6%
viability, T/C (second compound 1 µM, first compound 0.01 µM): 28%
viability, T/C [7]: 31.9%
viability, T/C [8]: 42%
viability, T/C (second compound 3.16 µM, first compound 0.000316 µM): 22.6%
viability, T/C (second compound 3.16 µM, first compound 0.001 µM): 18.6%
viability, T/C (second compound 3.16 µM, first compound 0.00316 µM): 19.6%
viability, T/C (second compound 3.16 µM, first compound 0.01 µM): 18.7%
viability, T/C [9]: 19.8%
viability, T/C [10]: 21.5%
viability, T/C (second compound 10 µM, first compound 0.000316 µM): 15.8%
viability, T/C (second compound 10 µM, first compound 0.001 µM): 17.3%
viability, T/C (second compound 10 µM, first compound 0.00316 µM): 19.3%
viability, T/C (second compound 10 µM, first compound 0.01 µM): 16.8%
viability, T/C [11]: 16.3%
viability, T/C [12]: 20.5%

Nc1ccn(C2OC(CO)C(O)C2(F)F)c(=O)n1 (stereo unspecified) + CNC(=O)c1ccc(Nc2nc(OC3CCCC3)c3c(-c4ccc5nc(C)oc5c4)c[nH]c3n2)c(OC)c1
IC50 (second compound 0.0316 µM): 975 nM
IC50 (second compound 0.1 µM): 629 nM
IC50 (second compound 0.316 µM): 157 nM
IC50 (second compound 1 µM): < 31.6 nM
IC50 (second compound 3.16 µM): < 31.6 nM
IC50 (second compound 10 µM): < 31.6 nM
viability, T/C [1]: 95.2%
viability, T/C [2]: 73.2%
viability, T/C [13]: 48.7%
viability, T/C [14]: 57.2%
viability, T/C [15]: 51.2%
viability, T/C [16]: 37.9%
viability, T/C [3]: 88.4%
viability, T/C [4]: 75.7%
viability, T/C [17]: 50.3%
viability, T/C [18]: 49.9%
viability, T/C [19]: 34.2%
viability, T/C [20]: 25.4%
viability, T/C [5]: 84.2%
viability, T/C [6]: 64.5%
viability, T/C [21]: 28%
viability, T/C [22]: 17.1%
viability, T/C [23]: 26.8%
viability, T/C [24]: 22.1%
viability, T/C [7]: 43.5%
viability, T/C [8]: 18.9%
viability, T/C [25]: 17.9%
viability, T/C [26]: 16.4%
viability, T/C [27]: 16.9%
viability, T/C [28]: 17.4%
viability, T/C [9]: 21%
viability, T/C [10]: 18.4%
viability, T/C [29]: 18%
viability, T/C [30]: 16.8%
viability, T/C [31]: 16.4%
viability, T/C [32]: 15.5%
viability, T/C [11]: 18.2%
viability, T/C [12]: 18.4%
viability, T/C [33]: 17.4%
viability, T/C [34]: 15.4%
viability, T/C [35]: 17.1%
viability, T/C [36]: 16.2%

O=c1[nH]cc(F)c(=O)[nH]1 + CNC(=O)c1ccc(Nc2nc(OC3CCCC3)c3c(-c4ccc5nc(C)oc5c4)c[nH]c3n2)c(OC)c1
IC50 (second compound 0.0316 µM): > 10000 nM
IC50 (second compound 0.1 µM): > 10000 nM
IC50 (second compound 0.316 µM): > 10000 nM
IC50 (second compound 1 µM): < 31.6 nM
IC50 (second compound 3.16 µM): < 31.6 nM
IC50 (second compound 10 µM): < 31.6 nM
viability, T/C [1]: 110%
viability, T/C [2]: 113%
viability, T/C [13]: 106%
viability, T/C [14]: 108%
viability, T/C [15]: 92.3%
viability, T/C [16]: 98.5%
viability, T/C [3]: 92.3%
viability, T/C [4]: 94.8%
viability, T/C [17]: 86.8%
viability, T/C [18]: 115%
viability, T/C [19]: 90.4%
viability, T/C [20]: 85.1%
viability, T/C [5]: 83.6%
viability, T/C [6]: 77.3%
viability, T/C [21]: 66.5%
viability, T/C [22]: 73.4%
viability, T/C [23]: 68.8%
viability, T/C [24]: 67%
viability, T/C [7]: 42.1%
viability, T/C [8]: 36%
viability, T/C [25]: 27.9%
viability, T/C [26]: 28.2%
viability, T/C [27]: 31.7%
viability, T/C [28]: 27.7%
viability, T/C [9]: 20.3%
viability, T/C [10]: 18.1%
viability, T/C [29]: 19.9%
viability, T/C [30]: 15.6%
viability, T/C [31]: 18.4%
viability, T/C [32]: 24.6%
viability, T/C [11]: 17.1%
viability, T/C [12]: 17.1%
viability, T/C [33]: 18.7%
viability, T/C [34]: 15.7%
viability, T/C [35]: 18.6%
viability, T/C [36]: 23.5%

Reference: PubChem BioAssay AID2060626 (Molecular Pharmacology Branch, DTP, NCI, 2025)
